From patent US11911407B2, “Therapies for cardiomyopathy” (UNIVERSITY COLLEGE DUBLIN, NATIONAL UNIVERSITY OF IRELAND, priority 2013, dated 2024)
Entries after “also recorded” stand apart in the source; their conditions may differ.

What was measured:
[1] = test system: spontaneously hypertensive rats (SHR); assay: Hydroxyproline assay of total collagen in myocardium; type: in vivo, rat; settings: SHR-5AZA vs SHR-V, 12 weeks
Description: (§1) Approval from the local Animal Research Ethics Committee was sought and obtained to investigate the anti-fibrotic impact of 5-aza on cardiac function and fibrosis. Male spontaneously hypertensive rats (SHR) and their normotensive counterpart Wistar Kyote rats (WKY) were purchased from Charles River and utilised for the study. From 10 weeks of age, the animals received alternate day intra-peritoneal injection of either PBS (vehicle) or 5-aza (10 mg/kg) for 12 weeks. The 5-aza was purchased from Sigma, diluted in sterile PBS and filtered through a 0.22 μm filter. Aliquots were stored at −20° C. and were used within 5 days of reconstitution. The study design consisted of three groups of 10 animals; group 1 included 10 SHR rats who received 5-aza (SH R-5-aza); group 2 included 10 SHR rats who received PBS vehicle (SHR-V); group 3 included 10 WKY rats who received PBS vehicle (WKY-V). All rats were housed in the animal facility under identical conditions, with a 12 hour light-dark cycle.

[2] = test system: spontaneously hypertensive rats (SHR); assay: Cardiac tissue gene expression of MYBP-C and ACTA1 by quantitative real-time PCR; type: in vivo, rat
Description: FIGS. 17 and 18 depict the effect of 5AZA treatment on cardiac expression levels of MYBP-C and ACTA1. Gene expression levels of MYBP-C and ACTA1 were assessed using quantitative real-time PCR in the cardiac tissue of SHR-V and SHR-AZA. […] Results represent mean and standard error of the mean. * p<0.05, *** p<0.001.
as §1

[3] = test system: spontaneously hypertensive rats (SHR); assay: Myocyte area digital analysis of haematoxylin and eosin stained cardiac tissue; type: in vivo, rat; settings: SHR-5AZA vs SHR-V
Description: FIG. 16 depicts the effect of 5AZA treatment on myocyte area in vivo. […] Male spontaneously hypertensive rats (SHR) and their normotensive counterpart Wistar Kyote rats (WKY) were purchased from Charles River and utilised for the study. From 10 weeks of age, the animals received alternate day intra-peritoneal injection of either PBS (vehicle) or 5-aza (10 mg/kg) for 12 weeks. The 5-aza was purchased from Sigma, diluted in sterile PBS and filtered through a 0.22 μm filter. Aliquots were stored at −20° C. and were used within 5 days of reconstitution. The study design consisted of three groups of 10 animals; group 1 included 10 SHR rats who received 5-aza (SH R-5-aza); group 2 included 10 SHR rats who received PBS vehicle (SHR-V); group 3 included 10 WKY rats who received PBS vehicle (WKY-V). All rats were housed in the animal facility under identical conditions, with a 12 hour light-dark cycle.

[4] = test system: spontaneously hypertensive rats (SHR); assay: Picrosirius red staining with automated digital quantification of perivascular collagen; type: in vivo, rat; settings: SHR-5AZA vs SHR-V, 12 weeks
Description: as §1, with “cycle. […]” for “cycle.”
The degree of collagen deposition was quantified by automated digital image analysis. […] A positive pixel count algorithm was used to automatically quantify the area occupied by the dark pink stain colours representing collagen within each scanned slide image. […] A collagen volume fraction was calculated based on the percent of dark pink collagen staining quantified within a tissue section.

[5] = test system: spontaneously hypertensive rats (SHR); assay: Doppler echocardiography in rat model of hypertensive heart disease; type: in vivo; settings: SHR-5AZA vs SHR-V, 10 mg/kg i.p. alternate day, 12 weeks
Description: Approval from the local Animal Research Ethics Committee was sought and obtained to investigate the anti-fibrotic impact of 5-aza on cardiac function and fibrosis. Male spontaneously hypertensive rats (SHR) and their normotensive counterpart Wistar Kyote rats (WKY) were purchased from Charles River and utilised for the study. From 10 weeks of age, the animals received alternate day intra-peritoneal injection of either PBS (vehicle) or 5-aza (10 mg/kg) for 12 weeks. The 5-aza was purchased from Sigma, diluted in sterile PBS and filtered through a 0.22 μm filter. Aliquots were stored at −20° C. and were used within 5 days of reconstitution. The study design consisted of three groups of 10 animals; group 1 included 10 SHR rats who received 5-aza (SH R-5-aza); group 2 included 10 SHR rats who received PBS vehicle (SHR-V); group 3 included 10 WKY rats who received PBS vehicle (WKY-V). All rats were housed in the animal facility under identical conditions, with a 12 hour light-dark cycle. Cardiac structure and function was assessed at baseline and at the end of the study (12 weeks) using Echocardiography. During the procedure, the animals were under inhaled anaesthesia (isoflurane 2%) and body temperature was maintained using a heat mat. Echocardiography assessment was performed using a Vevo 770 High-Resolution In Vivo Micro-Imaging System (Visualsonics) with a […] transducer. M-mode and 2-dimensional (2D) images were obtained in the parasternal long- and short-axis views. The interventricular septal thickness, posterior wall thickness, and LV diameter were measured in systole and diastole at the tips of the papillary muscle. Measurements were taken over three consecutive cardiac cycles and averaged. Left ventricular mass (LVM) was calculated according to Devereux's formula and indexed to tibial length (LVMi). Blinded analysis was performed by two separate independent observers.

[6] = test system: cardiac myoblast cells; assay: Cardiac myoblast gene expression of MYBP-C and ACTA1 in vitro by real-time PCR; type: cell-based; settings: 4 day treatment
Description: Confirmation of the impact of DNA methylation inhibitors can up-regulate the expression levels of MYBP-C and ACTA1 was assessed in vitro using cardiac myoblast cells. Cells were grown in culture for 4 days either in the presence or absence of 5-azacytidine (5AZA) or 5-aza-2-deoxycytidine (5AZA_DC). Gene expression was quantified using real-time PCR.

[7] = test system: HCF cells; assay: DNA demethylation with 5-aza-2′-deoxycytidine in hypoxic HCF cells, pro-fibrotic protein expression; type: cell-based, human; settings: for expression of ASMA / expression of collagen 1 / expression of collagen 3: hypoxic fibroblasts with TGFβ; for expression of ASMA / expression of collagen 1 / expression of collagen 3 / pro-fibrotic effects of / responses to TGFβ: 1-5 μM; for pro-fibrotic effects of / responses to TGFβ: hypoxic fibroblasts, up to eight days
Description: Where indicated, HCF cells were exposed to a 1% oxygen environment for up to 8 days using a hypoxic chamber (Coy Laboratories). The effects of 10 ng/ml recombinant TGFβ1 treatment (R&D Systems) under these conditions were investigated. When required, cells were treated for 24 hours with 1 mM of the prolyl hydroxylase inhibitor DMOG (Sigma) to simulate hypoxia through the induction of HIF under normoxic conditions. Whole cell protein lysates were generated using RIPA Lysis Buffer (Millipore), containing a protease inhibitor cocktail (Roche). Nuclear protein extracts were obtained using the Ne-PeR Nuclear and Cytoplasmic extraction Reagents, according to manufacturer's instructions (Pierce Biotechnology). Protein concentrations were determined using the BCA Protein Assay Kit (Pierce). 10-20 μg of protein lysates were denatured, reduced and resolved on SDS-polyacrylamide gels by SDS-PAGE before transfer onto 0.45 μm pore size Immobilon-P polyvinylidene fluoride (PVDF) membranes (Millipore). Membranes were incubated with blocking buffer (TBS, 0.25% Tween-20, 0.1% serum from species that secondary antibody was raised in, and 5% fat free skimmed milk) for 1 hour at room temperature. Membranes were subsequently probed overnight with either anti-ASMA (Sigma), anti-collagen 1, anti-DNMT3B (Imgenex), or anti-hypoxia inducible factor 1α (HIF-1α) (Novus Biologicals). Detection of the specific binding of the primary antibody was achieved using HRP-conjugated secondary antibodies, followed by signal detection with Immobilon Western chemiluminescent HRP substrate (Millipore) according to the manufacturer's instructions. Anti-alpha tubulin (Sigma) was used to verify equal loading. For demethylation analysis, cells were treated with 1-5 μM 5-aza-2′-deoxycytidine (5-azadc; Sigma) for up to eight days. The effect of global DNA methylation inhibition on pro-fibrotic protein expression was assessed using Western blotting.

[8] = test system: HCF cells; assay: DMOG treatment of HCF cells in normoxia (Western blot); type: cell-based, human; settings: 1 mM DMOG, 24 hours
Description: Primary human cardiac fibroblast cells from the adult ventricle (HCF) were purchased from ScienCell Research Laboratories. Primary cells were derived from a single person. Until required for experiments, cells were cultured and maintained in Dulbecco's modified eagles medium (DMEM) (Gibco), supplemented with 10% Fetal Bovine Serum (Gibco) and penicillin-streptomycin antibiotics (Gibco) in a 5% CO2 humidified incubator kept at 37° C.
(§2) Where indicated, HCF cells were exposed to a 1% oxygen environment for up to 8 days using a hypoxic chamber (Coy Laboratories). The effects of 10 ng/ml recombinant TGFβ1 treatment (R&D Systems) under these conditions were investigated. When required, cells were treated for 24 hours with 1 mM of the prolyl hydroxylase inhibitor DMOG (Sigma) to simulate hypoxia through the induction of HIF under normoxic conditions.
Whole cell protein lysates were generated using RIPA Lysis Buffer (Millipore), containing a protease inhibitor cocktail (Roche). Nuclear protein extracts were obtained using the Ne-PeR Nuclear and Cytoplasmic extraction Reagents, according to manufacturer's instructions (Pierce Biotechnology). Protein concentrations were determined using the BCA Protein Assay Kit (Pierce). […]

[9] = test system: HCF cells; assay: TGFβ1 treatment of HCF cells, quantitative real-time PCR; type: cell-based, human
Description: as §2
Gene expression changes were measured in HCF cells using QPCR as described in human cardiac tissue analysis methods section. RNA isolation from cells was achieved using NucleoSpin RNA II Kit (Macherey-Nagel). QPCR data was analysed using the delta delta CT method.

[10] = 10 ng/ml TGFβ1, 8 days hypoxia (1% oxygen)

Nc1ncn([C@@H]2O[C@H](CO)[C@@H](O)[C@H]2O)c(=O)n1 [5AZA, 5-azacytidine]
total collagen / collagen deposition within the myocardium (hydroxyproline) [1]: significant reduction
ACTA1 expression in cardiac tissue ([2]; SHR animals treated with 5AZA): significant increase
MYBP-C expression within the myocardium ([2]; SHR animals treated with 5AZA): significant increase
increase in ACTA1 gene expression in cardiac tissue ([2]; SHR-AZA vs SHR-V): 4 fold
increase in MYBP-C gene expression in cardiac tissue ([2]; SHR-AZA vs SHR-V): 4 fold
myocyte area [3]: significantly smaller; also recorded: significant decrease
perivascular collagen [4]: significantly reduced; also recorded: significant decrease
cardiac hypertrophy [5]: significant reduction
E prime (E′), diastolic dysfunction ([5]; 10 mg/kg): significantly approved; also recorded: significantly improved
Ejection fraction (EF) ([5]; 10 mg/kg): significantly increased; also recorded: significantly improved
interventricular septum diameter (in diastole) ([5]; 10 mg/kg): significant reduction; also recorded: reduced
left ventricular mass index (LVMi) ([5]; 10 mg/kg): significant reduction; also recorded: reduced
ACTA1 gene expression in cardiac myoblast cells [6]: significant increase
MYBP-C gene expression in cardiac myoblast cells [6]: significant increase
pro-fibrotic impact of hypoxia ([7]; FIGS. 7A-7C): reverses

Nc1ncn([C@H]2C[C@H](O)[C@@H](CO)O2)c(=O)n1 [5AZA_DC, 5-aza-2′-deoxycytidine]
ACTA1 gene expression in cardiac myoblast cells [6]: significant increase
MYBP-C gene expression in cardiac myoblast cells [6]: significant increase
expression of ASMA [7]: reduced expression
expression of collagen 1 [7]: reduced expression
expression of collagen 3 [7]: reduced expression
expression of ASMA ([7]; listed as 5-aza2dC): significantly reduced
expression of collagen 1 ([7]; listed as 5-aza2dC): significantly reduced
expression of collagen 3 ([7]; listed as 5-aza2dC): significantly reduced
pro-fibrotic effects of / responses to TGFβ [7]: significantly reduced
pro-fibrotic effects of / responses to TGFβ ([7]; listed as 5-aza2dC): inhibited

COC(=O)CNC(=O)C(=O)OC [DMOG]
expression of DNMT3B [8]: increased expression
nuclear HIF-1α protein expression [8]: stabilises

TGFβ1: human recombinant transforming growth factor beta 1, pro-fibrotic cytokine
ASMA gene expression ([9]; 10 ng/ml TGFβ1): significantly increased
collagen 1 gene expression ([9]; 10 ng/ml TGFβ1): significantly increased
ASMA gene expression [9, 10]: further enhanced
collagen 1 gene expression [9, 10]: further enhanced
